PubChem BioAssay (NCI)
Values joined by “and” are separate entries in the source; they are usually repeats but may differ in a detail not shown here. Identical values can stand only once.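 1) Cells in 96-well plates. 2) Compound, 48 h, 5 concentrations. 3) Linear interpolation between surrounding doses. 4) Unreached endpoint = highest concentration. The concentration for 50% growth inhibition is given as GI50. TGI is the concentration that stops growth completely.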

Experiments:
Assay in all cases: NCI tumour cell line growth inhibition, 48 h
786-0 renal = system: 786-0 renal
SK-MEL-28 melanoma = system: SK-MEL-28 melanoma
NCI-H522 lung = system: NCI-H522 lung
CAKI-1 renal = system: CAKI-1 renal
A498 renal = system: A498 renal
K-562 leukemia = system: K-562 leukemia
MOLT-4 leukemia = system: MOLT-4 leukemia
COLO 205 colon = system: COLO 205 colon
HOP-92 NSCLC = system: HOP-92 NSCLC
SK-MEL-2 melanoma = system: SK-MEL-2 melanoma
SR leukemia = system: SR leukemia
NCI-H226 lung = system: NCI-H226 lung
EKVX NSCLC = system: EKVX NSCLC
HOP-62 NSCLC = system: HOP-62 NSCLC
HT29 colon = system: HT29 colon
SF-268 CNS = system: SF-268 CNS
LOX IMVI melanoma = system: LOX IMVI melanoma
SK-OV-3 ovarian = system: SK-OV-3 ovarian
NCI/ADR-RES ovarian = system: NCI/ADR-RES ovarian
NCI-H460 lung = system: NCI-H460 lung
DU-145 prostate = system: DU-145 prostate
HCT-116 colon = system: HCT-116 colon
IGROV1 ovarian = system: IGROV1 ovarian
KM12 colon = system: KM12 colon
HCC-2998 colon = system: HCC-2998 colon
SF-295 CNS = system: SF-295 CNS
ACHN renal = system: ACHN renal
OVCAR-4 ovarian = system: OVCAR-4 ovarian
OVCAR-5 ovarian = system: OVCAR-5 ovarian
PC-3 prostate = system: PC-3 prostate
SW-620 colon = system: SW-620 colon
RXF 393 renal = system: RXF 393 renal
MDA-MB-435 = system: MDA-MB-435
UACC-257 melanoma = system: UACC-257 melanoma
TK-10 renal = system: TK-10 renal
MALME-3M melanoma = system: MALME-3M melanoma
HL-60(TB) leukemia = system: HL-60(TB) leukemia
U251 CNS = system: U251 CNS
SNB-19 CNS = system: SNB-19 CNS
SN12C renal = system: SN12C renal
SF-539 CNS = system: SF-539 CNS
OVCAR-8 ovarian = system: OVCAR-8 ovarian
SK-MEL-5 melanoma = system: SK-MEL-5 melanoma
UO-31 renal = system: UO-31 renal
HS 578T breast = system: HS 578T breast
BT-549 breast = system: BT-549 breast
OVCAR-3 ovarian = system: OVCAR-3 ovarian
SNB-75 CNS = system: SNB-75 CNS
A549 NSCLC = system: A549 NSCLC
MDA-MB-231 breast = system: MDA-MB-231 breast
HCT-15 colon = system: HCT-15 colon
NCI-H23 lung = system: NCI-H23 lung
CCRF-CEM leukemia = system: CCRF-CEM leukemia
MCF7 breast = system: MCF7 breast
M14 melanoma = system: M14 melanoma
UACC-62 melanoma = system: UACC-62 melanoma
T-47D breast = system: T-47D breast
RPMI-8226 leukemia = system: RPMI-8226 leukemia

C[N+](C)(C)CC1CCCc2ccccc2C1=O (configuration not stated)
GI50 (786-0 renal): 8.46 µM
TGI (786-0 renal): 6.44 µM and 21.7 µM
TGI (SK-MEL-28 melanoma): 34.5 µM
GI50 (NCI-H522 lung): 0.861 µM
TGI (NCI-H522 lung): 3.23 µM and 2.36 µM
GI50 (CAKI-1 renal): 2.06 µM
TGI (CAKI-1 renal): 6.71 µM and 5.04 µM
TGI (A498 renal): 27.6 µM
GI50 (K-562 leukemia): 0.303 µM
TGI (K-562 leukemia): 6.72 µM and 1.02 µM
GI50 (MOLT-4 leukemia): 0.388 µM
TGI (MOLT-4 leukemia): 7.79 µM and 1.06 µM
TGI (COLO 205 colon): 42.9 µM
TGI (HOP-92 NSCLC): 26.7 µM
TGI (SK-MEL-2 melanoma): 27.2 µM
TGI (SR leukemia): 8.08 µM
TGI (NCI-H226 lung): 42.2 µM
TGI (EKVX NSCLC): 14.5 µM
TGI (HOP-62 NSCLC): 34.3 µM
GI50 (HT29 colon): 7.65 µM
TGI (HT29 colon): 30.7 µM
TGI (SF-268 CNS): 53.9 µM
GI50 (LOX IMVI melanoma): 1.93 µM and 2.23 µM
TGI (LOX IMVI melanoma): 4.78 µM and 5.93 µM
TGI (SK-OV-3 ovarian): 34.5 µM
GI50 (NCI/ADR-RES ovarian): 22.4 µM
TGI (NCI/ADR-RES ovarian): 54 µM
TGI (NCI-H460 lung): 49.4 µM
TGI (DU-145 prostate): > 56.3 µM
GI50 (HCT-116 colon): 4.27 µM
TGI (HCT-116 colon): 3.27 µM and 8.46 µM
TGI (IGROV1 ovarian): 31.7 µM
GI50 (KM12 colon): 5.1 µM
TGI (KM12 colon): 24.8 µM
TGI (HCC-2998 colon): 45 µM
TGI (SF-295 CNS): > 55 µM
TGI (ACHN renal): 9.71 µM
GI50 (OVCAR-4 ovarian): 15.7 µM
TGI (OVCAR-4 ovarian): 41.2 µM
TGI (OVCAR-5 ovarian): 28.8 µM
TGI (PC-3 prostate): 30.8 µM
TGI (SW-620 colon): 3.67 µM and 3.92 µM
GI50 (RXF 393 renal): 15.8 µM
TGI (RXF 393 renal): 30.1 µM
TGI (MDA-MB-435): 11 µM
TGI (UACC-257 melanoma): 32.4 µM
TGI (TK-10 renal): 36.8 µM
TGI (MALME-3M melanoma): 12 µM
GI50 (HL-60(TB) leukemia): 1.16 µM
TGI (HL-60(TB) leukemia): 5.13 µM and 3.01 µM
TGI (U251 CNS): 12.4 µM
TGI (SNB-19 CNS): 85.6 µM
GI50 (SN12C renal): 18.9 µM
TGI (SN12C renal): 38.5 µM
GI50 (SF-539 CNS): 8.75 µM
TGI (SF-539 CNS): 31.7 µM
GI50 (OVCAR-8 ovarian): 6.14 µM
TGI (OVCAR-8 ovarian): 12.4 µM
TGI (SK-MEL-5 melanoma): 15.5 µM
TGI (UO-31 renal): 30.7 µM
TGI (HS 578T breast): 85.8 µM
TGI (BT-549 breast): 33.4 µM
TGI (OVCAR-3 ovarian): 17.7 µM
TGI (SNB-75 CNS): 34.3 µM
GI50 (A549 NSCLC): 18.6 µM
TGI (A549 NSCLC): 5.72 µM and 36.6 µM
TGI (MDA-MB-231 breast): 30.6 µM
GI50 (HCT-15 colon): 2.75 µM
TGI (HCT-15 colon): 8.43 µM
TGI (NCI-H23 lung): 35 µM
GI50 (CCRF-CEM leukemia): 0.42 µM
TGI (CCRF-CEM leukemia): 5.77 µM and 1.11 µM
GI50 (MCF7 breast): 0.511 µM
TGI (MCF7 breast): 5.29 µM and 2.23 µM
GI50 (M14 melanoma): 7.85 µM
TGI (M14 melanoma): 9.49 µM and 19.7 µM
TGI (UACC-62 melanoma): 26.5 µM
GI50 (T-47D breast): 19.1 µM

Cn1cc(C2=C(c3ccc(N)cc3)C(=O)NC2=O)c2ccccc21
GI50 (786-0 renal): 11.9 µM
TGI (786-0 renal): > 25 µM
GI50 (SK-MEL-28 melanoma): > 25 µM
TGI (SK-MEL-28 melanoma): > 25 µM
GI50 (NCI-H522 lung): 15.4 µM
TGI (NCI-H522 lung): > 25 µM
GI50 (CAKI-1 renal): > 18.9 µM
TGI (CAKI-1 renal): > 25 µM
GI50 (A498 renal): 3.63 µM
TGI (A498 renal): 12 µM
GI50 (K-562 leukemia): 9.71 µM
TGI (K-562 leukemia): > 25 µM
GI50 (MOLT-4 leukemia): 9.3 µM
TGI (MOLT-4 leukemia): > 25 µM
GI50 (COLO 205 colon): 11.6 µM
TGI (COLO 205 colon): > 25 µM
GI50 (HOP-92 NSCLC): > 25 µM
TGI (HOP-92 NSCLC): > 25 µM
GI50 (SK-MEL-2 melanoma): 8.38 µM
TGI (SK-MEL-2 melanoma): > 19 µM
GI50 (SR leukemia): 9.43 µM
TGI (SR leukemia): > 25 µM
GI50 (NCI-H226 lung): 16.1 µM
TGI (NCI-H226 lung): > 25 µM
GI50 (HOP-62 NSCLC): > 25 µM
TGI (HOP-62 NSCLC): > 25 µM
GI50 (HT29 colon): 12.5 µM
TGI (HT29 colon): > 25 µM
GI50 (SF-268 CNS): 20.1 µM
TGI (SF-268 CNS): > 25 µM
GI50 (RPMI-8226 leukemia): > 23.5 µM
TGI (RPMI-8226 leukemia): > 25 µM
GI50 (LOX IMVI melanoma): 9.88 µM
TGI (LOX IMVI melanoma): > 25 µM
GI50 (SK-OV-3 ovarian): 13.9 µM
TGI (SK-OV-3 ovarian): > 25 µM
GI50 (NCI/ADR-RES ovarian): 21.8 µM
TGI (NCI/ADR-RES ovarian): > 25 µM
GI50 (NCI-H460 lung): 23.3 µM
TGI (NCI-H460 lung): > 25 µM
GI50 (DU-145 prostate): > 25 µM
TGI (DU-145 prostate): > 25 µM
GI50 (HCT-116 colon): 11.3 µM
TGI (HCT-116 colon): > 25 µM
GI50 (IGROV1 ovarian): > 23.7 µM
TGI (IGROV1 ovarian): > 25 µM
GI50 (KM12 colon): 10.9 µM
TGI (KM12 colon): > 25 µM
GI50 (HCC-2998 colon): > 25 µM
TGI (HCC-2998 colon): > 25 µM
GI50 (SF-295 CNS): 15.7 µM
TGI (SF-295 CNS): > 25 µM
GI50 (ACHN renal): 13.4 µM
TGI (ACHN renal): > 25 µM
GI50 (OVCAR-4 ovarian): > 25 µM
TGI (OVCAR-4 ovarian): > 25 µM
GI50 (OVCAR-5 ovarian): > 25 µM
TGI (OVCAR-5 ovarian): > 25 µM
GI50 (PC-3 prostate): 17 µM
TGI (PC-3 prostate): > 25 µM
GI50 (SW-620 colon): 13.7 µM
TGI (SW-620 colon): > 25 µM
GI50 (RXF 393 renal): 4.85 µM
TGI (RXF 393 renal): > 22.9 µM
GI50 (MDA-MB-435): 5.71 µM
TGI (MDA-MB-435): 24.4 µM
GI50 (UACC-257 melanoma): > 25 µM
TGI (UACC-257 melanoma): > 25 µM
GI50 (TK-10 renal): > 25 µM
TGI (TK-10 renal): > 25 µM
GI50 (MALME-3M melanoma): > 25 µM
TGI (MALME-3M melanoma): > 25 µM
GI50 (HL-60(TB) leukemia): 8.58 µM
TGI (HL-60(TB) leukemia): > 25 µM
GI50 (U251 CNS): 11.4 µM
TGI (U251 CNS): > 25 µM
GI50 (SNB-19 CNS): > 25 µM
TGI (SNB-19 CNS): > 25 µM
GI50 (SN12C renal): 16.3 µM
TGI (SN12C renal): > 25 µM
GI50 (SF-539 CNS): 9.02 µM
TGI (SF-539 CNS): > 25 µM
GI50 (OVCAR-8 ovarian): > 25 µM
TGI (OVCAR-8 ovarian): > 25 µM
GI50 (SK-MEL-5 melanoma): > 17.8 µM
TGI (SK-MEL-5 melanoma): > 25 µM
GI50 (UO-31 renal): 16.5 µM
TGI (UO-31 renal): > 25 µM
GI50 (HS 578T breast): 3.01 µM
TGI (HS 578T breast): > 16.1 µM
GI50 (BT-549 breast): 11.4 µM
TGI (BT-549 breast): > 25 µM
GI50 (OVCAR-3 ovarian): 14.3 µM
TGI (OVCAR-3 ovarian): > 25 µM
GI50 (SNB-75 CNS): 0.571 µM
TGI (SNB-75 CNS): > 15.2 µM
GI50 (A549 NSCLC): 18.4 µM
TGI (A549 NSCLC): > 25 µM
GI50 (MDA-MB-231 breast): > 23 µM
TGI (MDA-MB-231 breast): > 25 µM
GI50 (HCT-15 colon): 11.5 µM
TGI (HCT-15 colon): > 25 µM
GI50 (NCI-H23 lung): 21.6 µM
TGI (NCI-H23 lung): > 25 µM
GI50 (CCRF-CEM leukemia): 12.3 µM
TGI (CCRF-CEM leukemia): > 25 µM
GI50 (MCF7 breast): 13.7 µM
TGI (MCF7 breast): > 25 µM
GI50 (M14 melanoma): > 20.4 µM
TGI (M14 melanoma): > 25 µM
GI50 (UACC-62 melanoma): 11.8 µM
TGI (UACC-62 melanoma): > 25 µM
GI50 (T-47D breast): > 24 µM
TGI (T-47D breast): > 25 µM
